From ChEMBL document CHEMBL1201862, “PubChem BioAssay data set” (2004)
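How tested: cells in 96-well plates exposed to compound for 48 hours at five concentrations. Here, GI50 denotes the concentration required for 50% inhibition of growth.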 Calls of active or inactive are those of the source. No stated cut-off is given here; in the data, active = GI50 up to about 1.1 µM and inactive = higher.

Experiments:
Assay in all cases: DTP human tumour cell line panel, 48 h
HL-60 = system: HL-60
SK-MEL-5 = system: SK-MEL-5
COLO 205 = system: COLO 205
NCI-H226 = system: NCI-H226
RPMI-8226 = system: RPMI-8226
LOX IMVI = system: LOX IMVI
NCI-H522 = system: NCI-H522
SF-295 = system: SF-295
SN12C = system: SN12C
SK-OV-3 = system: SK-OV-3
HCT-116 = system: HCT-116
EKVX = system: EKVX
SNB-19 = system: SNB-19
U-251 = system: U-251
IGROV-1 = system: IGROV-1
OVCAR-5 = system: OVCAR-5
HCC 2998 = system: HCC 2998
KM12 = system: KM12
OVCAR-8 = system: OVCAR-8
SW-620 = system: SW-620

Measured: GI50

O=C(c1ccccc1)N1C(=S)NC(=N/c2ccccc2)/C1=N\c1ccccc1
inactive: HL-60 > 100 µM | SK-MEL-5 > 100 µM | COLO 205 > 100 µM | NCI-H226 > 100 µM | RPMI-8226 > 100 µM | LOX IMVI > 100 µM | NCI-H522 > 100 µM | SF-295 > 100 µM | SN12C > 100 µM | SK-OV-3 > 100 µM | HCT-116 > 100 µM | EKVX > 100 µM | SNB-19 > 100 µM | U-251 > 100 µM | IGROV-1 > 100 µM | OVCAR-5 > 100 µM | HCC 2998 > 100 µM | KM12 > 100 µM | OVCAR-8 > 100 µM | SW-620 > 100 µM

C/C(=C\C(=O)Nc1ccc2[nH]nnc2c1)Nc1ccc2[nH]nnc2c1
inactive: HL-60 > 100 µM | SK-MEL-5 > 100 µM | COLO 205 > 100 µM | NCI-H226 > 100 µM | RPMI-8226 > 100 µM | LOX IMVI > 100 µM | NCI-H522 > 100 µM | SF-295 > 100 µM | SN12C > 100 µM | SK-OV-3 > 100 µM | HCT-116 > 100 µM | EKVX > 100 µM | SNB-19 > 100 µM | U-251 > 100 µM | IGROV-1 > 100 µM | OVCAR-5 > 100 µM | HCC 2998 > 100 µM | KM12 > 100 µM | OVCAR-8 > 100 µM | SW-620 > 100 µM

CCOC(=O)C[n+]1ccc2c([nH]c3cc(OC)ccc32)c1C
inactive: HL-60 > 75.7 µM | SK-MEL-5 > 77.8 µM | COLO 205 > 71.6 µM | NCI-H226 36.8 µM | RPMI-8226 > 100 µM | LOX IMVI 71.8 µM | NCI-H522 68.2 µM | SF-295 69.2 µM | SN12C > 81.5 µM | SK-OV-3 > 100 µM | HCT-116 61 µM | EKVX > 100 µM | SNB-19 > 100 µM | U-251 > 77.4 µM | IGROV-1 > 100 µM | OVCAR-5 > 100 µM | HCC 2998 > 100 µM | KM12 > 100 µM | OVCAR-8 > 87.1 µM | SW-620 > 100 µM

O=[N+]([O-])c1ccc(-n2nnc(C3=NCCCN3)c2-c2ccc(Cl)cc2)cc1
inactive: HL-60 46.3 µM | SK-MEL-5 82.2 µM | COLO 205 30.5 µM | NCI-H226 > 100 µM | RPMI-8226 > 100 µM | LOX IMVI > 100 µM | NCI-H522 > 100 µM | SF-295 > 100 µM | SN12C > 100 µM | SK-OV-3 > 100 µM | HCT-116 89.1 µM | EKVX > 100 µM | SNB-19 > 100 µM | U-251 > 100 µM | IGROV-1 > 100 µM | OVCAR-5 > 100 µM | HCC 2998 > 100 µM | KM12 > 100 µM | OVCAR-8 > 100 µM | SW-620 > 100 µM

O=C(O)C1CCC(=O)N1S(=O)(=O)c1ccccc1 (stereo not given)
inactive: HL-60 > 100 µM | SK-MEL-5 > 100 µM | COLO 205 > 100 µM | NCI-H226 > 100 µM | RPMI-8226 > 100 µM | LOX IMVI > 100 µM | NCI-H522 > 100 µM | SF-295 > 100 µM | SN12C > 100 µM | SK-OV-3 > 100 µM | HCT-116 > 100 µM | EKVX > 100 µM | SNB-19 > 100 µM | U-251 > 100 µM | IGROV-1 > 100 µM | OVCAR-5 > 100 µM | HCC 2998 > 100 µM | KM12 > 100 µM | OVCAR-8 > 100 µM | SW-620 > 100 µM
